Laboratory results reported in US20030134859A1 (SANKYO COMPANY, LIMITED, priority 2000, published 2003).
Where two headings read alike, the source gives them in different places.

Columns and labels:
Rat white adipocytes = test: Inhibition of the differentiation of adipocytes (Oil Red O); type: cell-based; conditions: 100 nM test compound, 5 days, Oil Red O ABS550, control = 100%, blank = 0%, Table 3; for activity at 0.1 µM: Rattus norvegicus, Adipocyte, 120 h, read-out: Rate of Differentiation (%)
Summary of the method: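 Rat white preadipocytes, 5,000 cells/well, given differentiation medium with compound at 100 nM final (0.1% DMSO) for 5 days at 37 °C. Lipid stained with Oil Red O, eluted in DMSO, read at 550 nm; differentiation % relative to DMSO control (100%) and blank (0%).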

leptin production = test: Enhancing activity for leptin production in adipocytes (ELISA); type: cell-based, rat; conditions: leptin concentration as % of control group; for activity at 1 µM / activity at 0.001 µM / activity at 0.01 µM / activity at 0.1 µM: Rattus norvegicus, Adipocyte, read-out: Facilitating activity to produce leptin; for activity at 0.001 µM: 1 nm; for activity at 0.01 µM: 10 nm
Summary of the method: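 Collagenase-dispersed epididymal adipocytes from 6-week-old male Wistar Imamichi rats, cultured in DMEM/F-12 (1:1) with test compound at final 1 µM, 100 nM, 10 nM or 1 nM (0.1% DMSO) for 24 h at 37 °C, 5% CO2. Leptin in filtrate measured by ELISA; activity = treated/DMSO-control leptin × 100 (%).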

Compound `N#Cc1cccc(NC(=O)c2cc([N+](=O)[O-])ccc2Cl)c1` [Example 21, N-(3-Cyanophenyl)-(2-chloro-5-nitrophenyl)carboxamide] has an activity at 0.1 µM (Rat white adipocytes) of 63%, an activity at 1 µM (leptin production; 24 h, 1 μM) of 130% and an activity at 0.001 µM (leptin production; 24 h) of 116%. For the same compound, the activity at 0.01 µM (leptin production; 24 h) was 120% and the activity at 0.1 µM (leptin production; 24 h, 100 nm) was 150%.
`O=C(Nc1ccc([N+](=O)[O-])cc1)c1cc([N+](=O)[O-])ccc1Cl` [Example 23, N-(4-Nitrophenyl)-(2-chloro-5-nitrophenyl)carboxamide] gave an activity at 0.1 µM (Rat white adipocytes) of 57.7%, an activity at 1 µM (leptin production; 1 μM, 24 hr) of 110% and an activity at 0.001 µM (leptin production; 24 hr) of 134%. For the same compound, the activity at 0.01 µM (leptin production; 24 hr) was 138% and the activity at 0.1 µM (leptin production; 100 nm, 24 hr) was 158%.
With `O=C(Nc1ccc([N+](=O)[O-])cn1)c1cc([N+](=O)[O-])ccc1Cl` [Example 24, N-(5-Nitropyridin-2-yl)-(2-chloro-5-nitrophenyl)carboxamide] the activity at 0.1 µM (Rat white adipocytes) was 59.1%, the activity at 1 µM (leptin production; 1 μM, 24 hr) was 144% and the activity at 0.001 µM (leptin production; 24 hr) was 112%. For the same compound, the activity at 0.01 µM (leptin production; 24 hr) was 121% and the activity at 0.1 µM (leptin production; 100 nm, 24 hr) was 143%.
For `O=C(Nc1cccc([N+](=O)[O-])c1)c1cc([N+](=O)[O-])ccc1Cl` [Example 25, N-(3-Nitrophenyl)-(2-chloro-5-nitrophenyl)carboxamide], the activity at 0.1 µM (Rat white adipocytes) was 84%, the activity at 0.001 µM (leptin production; 24 hr) was 113% and the activity at 0.01 µM (leptin production; 24 hr) was 118%. The activity at 0.1 µM (leptin production; 100 nm, 24 hr) was 156%.
`O=C(Nc1cc([N+](=O)[O-])ccc1Cl)c1cc([N+](=O)[O-])ccc1Cl` [Example 28, N-(2-Chloro-5-nitrophenyl)-(2-chloro-5-nitrophenyl)carboxamide] showed an activity at 1 µM (leptin production; 1 μM, 24 hr) of 108% and an activity at 0.1 µM (leptin production; 100 nm, 24 hr) of 120%.
In the case of `O=C(Nc1cccc(C(=O)N2CCCC2)c1)c1cc([N+](=O)[O-])ccc1Cl` [Example 31], the “Rate of Differentiation (%)” value (Rat white adipocytes) is reported as 77.2% and the “Facilitating activity to produce leptin” value (leptin production; 100 nm, 24 hr) is reported as 116.9%.
With `O=C(Nc1nc(-c2cccs2)cs1)c1cc([N+](=O)[O-])ccc1Cl` [Example 36, N-[4-(2-Thienyl)thiazol-2-yl)-(2-chloro-5-nitrophenyl)carboxamide] the activity at 0.1 µM (leptin production; 24 h, 100 nm) was 120%.
`O=C(Nc1nc(-c2ccc3ccccc3c2)cs1)c1cc([N+](=O)[O-])ccc1Cl` [Example 42, N-[4-(2-Naphthyl)thiazol-2-yl)-(2-chloro-5-nitrophenyl)carboxamide] was tested, and the activity at 1 µM (leptin production; 24 h, 1 μM) was 127%.
Work on `O=C(Nc1nc(-c2ccc(Cl)c(Cl)c2)cs1)c1cc([N+](=O)[O-])ccc1Cl` [Example 43, N-[4-(3,4-Dichlorophenyl)thiazol-2-yl]-(2-chloro-5-nitrophenyl)carboxamide] yielded an activity at 1 µM (leptin production; 24 h, 1 μM) of 111% and an activity at 0.1 µM (leptin production; 24 h, 100 nm) of 112%.
`O=C(Nc1ccncc1)c1cc([N+](=O)[O-])ccc1Cl` [Example 49, N-(4-Pyridyl)-(2-chloro-5-nitrophenyl)carboxamide] gave an activity at 0.1 µM (Rat white adipocytes) of 71%, an activity at 1 µM (leptin production; 24 h, 1 μM) of 121% and an activity at 0.01 µM (leptin production; 24 h) of 131%. The activity at 0.1 µM (leptin production; 24 h, 100 nm) was 133%.
Work on `O=C(Nc1cnc2ccccc2c1)c1cc([N+](=O)[O-])ccc1Cl` [Example 55, N-(3-Quinolinyl)-(2-chloro-5-nitrophenyl)carboxamide] yielded an activity at 0.001 µM (leptin production; 24 h) of 116%, an activity at 0.01 µM (leptin production; 24 h) of 115% and an activity at 0.1 µM (leptin production; 24 h, 100 nm) of 113%.
Compound `O=C(Nc1ccc(Cl)nc1)c1cc([N+](=O)[O-])ccc1Cl` [Example 62, N-(6-Chloropyridin-3-yl)-(2-chloro-5-nitrophenyl)carboxamide] has an activity at 0.1 µM (Rat white adipocytes) of 68.5%, an activity at 0.001 µM (leptin production; 24 h) of 119% and an activity at 0.01 µM (leptin production; 24 h) of 115%. For the same compound, the activity at 0.1 µM (leptin production; 24 h, 100 nm) was 132%.
`O=C(Nc1ccc(NC(=O)c2cc([N+](=O)[O-])ccc2Cl)nc1)c1cc([N+](=O)[O-])ccc1Cl` [Example 64, 2,5-bis(2-Chloro-5-nitrobenzoylamino)pyridine] gave an activity at 0.1 µM (Rat white adipocytes) of 85.5%, an activity at 0.001 µM (leptin production; 24 hr) of 110% and an activity at 0.01 µM (leptin production; 24 hr) of 112%. The activity at 0.1 µM (leptin production; 100 nm, 24 hr) was 119%.
`O=C(Nc1nc2cc(Cl)ccc2o1)c1cc([N+](=O)[O-])ccc1Cl` [Example 75, N-(5-Chlorobenzoxazol-2-yl)-(2-chloro-5-nitrophenyl)carboxamide] gave an activity at 0.1 µM (Rat white adipocytes) of 88.6% and an activity at 0.1 µM (leptin production; 24 h, 100 nm) of 118%.
`O=C(Nc1ncc(Br)cn1)c1cc([N+](=O)[O-])ccc1Cl` [Example 77, N-(5-Bromopyrimidin-2-yl)-(2-chloro-5-nitrophenyl)carboxamide] showed an activity at 0.1 µM (Rat white adipocytes) of 68%, an activity at 1 µM (leptin production; 24 h, 1 μM) of 113% and an activity at 0.001 µM (leptin production; 24 h) of 108%. It also gave an activity at 0.01 µM (leptin production; 24 h) of 110% and an activity at 0.1 µM (leptin production; 24 h, 100 nm) of 130%.
`O=C(Nc1nc(Cl)cc(Cl)n1)c1cc([N+](=O)[O-])ccc1Cl` [Example 83, N-(4,6-Dichloropyrimidin-2-yl)-(2-chloro-5-nitrophenyl)carboxamide] was tested, and the activity at 0.1 µM (leptin production; 24 h, 100 nm) was 126%.
With `O=C(Nc1ccc(Cl)nn1)c1cc([N+](=O)[O-])ccc1Cl` [Example 89] the “Facilitating activity to produce leptin” value (leptin production; 100 nm, 24 hr) was 123.2%.
In the case of `Cc1c(C)c2c(c(C)c1O)C(=O)CC(C)(COc1ccc(NC(=O)c3cc([N+](=O)[O-])ccc3Cl)cc1)O2` (stereo not drawn) [Example 92, N-[4-(6-Hydroxy-2,5,7,8-tetramethyl-4-oxochroman-2-ylmethoxy)phenyl]-(2-chloro-5-nitrophenyl)carboxamide], the activity at 0.1 µM (leptin production; 24 h, 100 nm) is reported as 116%.
Compound `Cc1nnc(NS(=O)(=O)c2ccc(NC(=O)c3cc([N+](=O)[O-])ccc3Cl)cc2)s1` [Example 101, N-[4-[(5-Methyl-[1,3,4]thiadiazol-2-yl)aminosulfonyl]phenyl]-(2-chloro-5-nitrophenyl)carboxamide] has an activity at 1 µM (leptin production; 24 h, 1 μM) of 117%.
`Cc1ccc(C(=O)Nc2ccc(NC(=O)c3cc([N+](=O)[O-])ccc3Cl)cc2)cc1` [Example 121, N-[4-(4-Methylbenzoyl)aminophenyl]-(2-chloro-5-nitrophenyl)carboxamide] was tested, and the activity at 0.1 µM (leptin production; 24 h, 100 nm) was 114%.
For `O=C(Nc1ccc(NS(=O)(=O)c2ccccc2)cc1)c1cc([N+](=O)[O-])ccc1Cl` [Example 127, N-(4-Benzenesulfonylaminophenyl)-(2-chloro-5-nitrophenyl)carboxamide], the activity at 1 µM (leptin production; 24 h, 1 μM) was 115%.
Work on `O=C(Nc1cnccn1)c1cc([N+](=O)[O-])ccc1Cl` [Example 140, N-(Pyrazin-2-yl)-(2-chloro-5-nitrophenyl)carboxamide] yielded an activity at 0.1 µM (leptin production; 24 h, 100 nm) of 114%.
With `O=C(Nc1ccc(S(=O)(=O)N2CCCCC2)cc1)c1cc([N+](=O)[O-])ccc1Cl` [Example 151, N-[4-(Piperidyisulfonyl)phenyl]-(2-chloro-5-nitrophenyl)carboxamide] the activity at 1 µM (leptin production; 24 h, 1 μM) was 113% and the activity at 0.1 µM (leptin production; 24 h, 100 nm) was 113%.
`O=C(Nc1ccc(S(=O)(=O)N2CCOCC2)cc1)c1cc([N+](=O)[O-])ccc1Cl` [Example 153, N-[4-(Morpholin-4-ylsulfonyl)phenyl]-(2-chloro-5-nitrophenyl)carboxamide] showed an activity at 1 µM (leptin production; 24 h, 1 μM) of 113%.
`CC(=O)c1cccc(NC(=O)c2cc([N+](=O)[O-])ccc2Cl)c1` [Example 156, N-(3-Acetylphenyl)-(2-chloro-5-nitrophenyl)carboxamide] was tested, and the activity at 1 µM (leptin production; 24 h, 1 μM) was 112% and the activity at 0.1 µM (leptin production; 24 h, 100 nm) was 118%.
`CC(C)(C)c1cc(NS(=O)(=O)c2cccc(NC(=O)c3cc([N+](=O)[O-])ccc3Cl)c2)cc(C(C)(C)C)c1O` [Example 161, N-[3-[(3,5-di-tert-Butyl-4-hydroxyphenyl)aminosulfonyl]phenyl]-(2-chloro-5-nitrophenyl)carboxamide] showed an activity at 1 µM (leptin production; 24 h, 1 μM) of 131%.
In the case of `CCCN(CCC)c1ccc(NC(=O)c2cc([N+](=O)[O-])ccc2Cl)cc1` [Example 182, N-[4-(N,N-Dipropylamino)phenyl]-(2-chloro-5-nitrophenyl)carboxamide], the activity at 0.01 µM (leptin production; 24 h) is reported as 110% and the activity at 0.1 µM (leptin production; 24 h, 100 nm) is reported as 112%.
Compound `CCCCCCN(CC)c1ccc(NC(=O)c2cc([N+](=O)[O-])ccc2Cl)cc1` [Example 188, N-[4-(N-Ethyl-N-hexylamino)phenyl]-(2-chloro-55 nitrophenyl)carboxamide] has an activity at 0.001 µM (leptin production; 24 h) of 110%.
Work on `CC(C)(C)OC(=O)Nc1ccc(-c2csc(NC(=O)c3cc([N+](=O)[O-])ccc3Cl)n2)cc1` [Example 190, N-[4-(4-tert-Butoxycarbonylaminophenyl)thiazol-2-yl]-(2-chloro-5-nitrophenyl)carboxamide] yielded an activity at 0.1 µM (Rat white adipocytes) of 64.2%.
In the case of `CCCN(CCC)c1ccc(-c2ccc(NC(=O)c3cc([N+](=O)[O-])ccc3Cl)cc2)cc1` [Example 194, N-[4-[4-(N,N-Dipropylamino)phenyl]phenyl]-(2-chloro-5-nitrophenyl)carboxamide], the activity at 0.1 µM (Rat white adipocytes) is reported as 37.1%.
In the case of `CCN(C)c1ccc(-c2ccc(NC(=O)c3cc([N+](=O)[O-])ccc3Cl)cc2)cc1` [Example 218, N-[4-[4-(N-Ethyl-N-methylamino)phenyl]phenyl]-(2-chloro-5-nitrophenyl)carboxamide], the activity at 0.1 µM (Rat white adipocytes) is reported as 31.7%.
`O=C(Nc1nc(-c2ccc([N+](=O)[O-])cc2)cs1)c1cc([N+](=O)[O-])ccc1Cl` [Example 246, N-[4-(4-Nitrophenyl)thiazol-2-yl]-(2-chloro-5-nitrophenyl)carboxamide] showed an activity at 0.01 µM (leptin production; 24 hr) of 111% and an activity at 0.1 µM (leptin production; 100 nm, 24 hr) of 113%.
“N-[3-(Pyrrolidinylsulfonyl)phenyl]-(2-chloro-5-nitrophenyl)carboxamide [Example 154]” was tested, and the “Facilitating activity to produce leptin” value (leptin production; 1 μM, 24 hr) was 116.9% and the “Facilitating activity to produce leptin” value (leptin production; 100 nm, 24 hr) was 109.5%.
